This is an account of results in ChEMBL document CHEMBL4732190, “Identification of Potent and Long-Acting Single-Chain Peptide Mimetics of Human Relaxin-2 for Cardiovascular Diseases” (J Med Chem, 2021).

Assay [1] deals with T1, Relaxin receptor 1 (Homo sapiens) (UniProt Q9HBX9).
T1 sequence (whole entry): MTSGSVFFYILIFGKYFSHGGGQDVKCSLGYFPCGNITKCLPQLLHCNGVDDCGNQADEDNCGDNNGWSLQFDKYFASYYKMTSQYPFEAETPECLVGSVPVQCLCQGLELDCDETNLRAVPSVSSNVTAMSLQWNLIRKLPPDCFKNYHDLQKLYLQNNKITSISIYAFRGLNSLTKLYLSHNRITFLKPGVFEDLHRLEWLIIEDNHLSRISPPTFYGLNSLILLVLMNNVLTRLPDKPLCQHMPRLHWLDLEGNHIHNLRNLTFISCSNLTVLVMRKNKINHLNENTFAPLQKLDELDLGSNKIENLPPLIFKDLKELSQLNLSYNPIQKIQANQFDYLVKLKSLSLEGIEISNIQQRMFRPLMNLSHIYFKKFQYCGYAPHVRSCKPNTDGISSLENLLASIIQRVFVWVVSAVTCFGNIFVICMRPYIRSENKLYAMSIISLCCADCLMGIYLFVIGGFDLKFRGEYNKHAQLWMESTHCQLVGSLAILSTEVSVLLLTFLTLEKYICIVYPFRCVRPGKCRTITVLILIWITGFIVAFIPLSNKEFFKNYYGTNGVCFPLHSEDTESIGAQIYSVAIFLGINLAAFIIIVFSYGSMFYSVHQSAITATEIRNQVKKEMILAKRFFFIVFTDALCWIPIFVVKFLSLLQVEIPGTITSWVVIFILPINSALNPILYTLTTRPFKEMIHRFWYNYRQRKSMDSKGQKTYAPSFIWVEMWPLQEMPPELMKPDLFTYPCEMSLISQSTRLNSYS
Nature of the assay: Agonist activity at RXFP1 endogenously expressed in human OVCAR-5 cells assessed as increase in IBMX-induced cAMP accumulation pretreated with IBMX for 40 mins followed by compound addition and measured after 30 mins by HTRF assay relative to relaxin. It is filed as functional, cell-based. The note with it: filed as agonist.

A further assay has as its target T2, Relaxin receptor 1 (Homo sapiens, UniProt Q9HBX9).
T2 sequence (Q9HBX9 whole entry): T1 sequence (whole entry)
The assay can be described thus: Agonist activity at RXFP1 endogenously expressed in human OVCAR-5 cells assessed as increase in IBMX-induced cAMP accumulation pretreated with IBMX for 40 mins followed by compound addition and measured after 30 mins by HTRF assay. It is filed as functional, cell-based.

*1 amine or outer side, *2 acyl side, *3 side chain or, on linkers, in order; H or OH if unused. Where a SMILES comes first, the peptide text is derived from it. [ ]: non-standard residue; d: D form. β2hAla(2S) = C[C@@H](CN[*:1])C(=O)[*:2]; X4 = CCCC[C@H](O[*:1])C(=O)[*:2]; hLys = NCCCCC[C@H](N)C(=O)O

The Emax is the size of the effect at its maximum, as opposed to the concentration needed. A word on the EC50: it is the concentration at which the effect is half-maximal. For the compound `CC[C@H](C)[C@H](NC(=O)[C@H](CCC(N)=O)NC(=O)[C@H](C)NC(=O)[C@H](CCCNC(=N)N)NC(=O)[C@@H](NC(=O)[C@H](CC(C)C)NC(=O)[C@H](CCC(=O)O)NC(=O)[C@H](CCCNC(=N)N)NC(=O)CNC(=O)[C@H](CO)NC(=O)[C@H](CC(C)C)NC(=O)[C@H](CCCCN)NC(=O)[C@@H](NC(=O)[C@@H](NC(=O)[C@H](CCC(=O)O)NC(=O)[C@H](CCC(=O)O)NC(C)=O)C(C)C)[C@@H](C)CC)C(C)C)C(=O)N[C@@H](C)C(=O)NC[C@H](C)C(=O)N[C@@H](CO)C(=O)NCC(=O)N[C@@H](CCSC)C(=O)N[C@@H](CO)C(=O)N[C@H](C(=O)N[C@@H](Cc1c[nH]c2ccccc12)C(=O)N[C@@H](CO)C(=O)N[C@@H](CCCCN)C(=O)N[C@@H](CCCNC(=N)N)C(=O)N[C@@H](CO)C(=O)N[C@@H](CC(C)C)C(N)=O)[C@@H](C)O` (HELM PEPTIDE1{[ac].E.E.V.I.K.L.S.G.R.E.L.V.R.A.Q.I.A.[C[C@@H](CN[*:1])C(=O)[*:2]].S.G.M.S.T.W.S.K.R.S.L.[am]}$$$$V2.0), the Emax in assay [1] came to 91%. The concentration giving a half-maximal response (EC50) at Relaxin receptor 1 stood at 200 nM.
As for `CC[C@H](C)[C@H](NC(=O)[C@H](CCC(N)=O)NC(=O)[C@H](C)NC(=O)[C@H](CCCNC(=N)N)NC(=O)[C@@H](NC(=O)[C@H](CCCCN)NC(=O)[C@H](CCC(=O)O)NC(=O)[C@H](CCCNC(=N)N)NC(=O)CNC(=O)[C@H](CCC(=O)O)NC(=O)[C@H](CC(C)C)NC(=O)[C@H](CCCCN)NC(=O)[C@@H](NC(=O)[C@@H](NC(=O)[C@H](CCC(=O)O)NC(=O)[C@H](CCC(=O)O)NC(C)=O)C(C)C)[C@@H](C)CC)C(C)C)C(=O)NC[C@H](C)C(=O)N[C@H](C(=O)N[C@@H](CCC(=O)O)C(=O)NCC(=O)N[C@@H](CCSC)C(=O)N[C@@H](CO)C(=O)N[C@@H](CCCCN)C(=O)N[C@@H](Cc1c[nH]c2ccccc12)C(=O)N[C@@H](CO)C(=O)N[C@@H](CCCCN)C(=O)N[C@@H](CCCNC(=N)N)C(=O)N[C@@H](CCCCN)C(=O)N[C@@H](CCCCN)C(N)=O)[C@@H](C)CC` (HELM PEPTIDE1{[ac].E.E.V.I.K.L.E.G.R.E.K.V.R.A.Q.I.[C[C@@H](CN[*:1])C(=O)[*:2]].I.E.G.M.S.K.W.S.K.R.K.K.[am]}$$$$V2.0), in assay [1], the Emax stood at 97%. The EC50 on Relaxin receptor 1 is 45 nM.
In the same order, the values of Ac-VIKLSGRELVRAQIAISGMSTWSKRKK-NH2 are 89% and 522 nM.
The corresponding values for `CC[C@H](C)[C@H](NC(=O)[C@H](CCC(N)=O)NC(=O)[C@H](C)NC(=O)[C@H](CCCNC(=N)N)NC(=O)[C@@H](NC(=O)[C@H](CC(C)C)NC(=O)[C@H](CCC(=O)O)NC(=O)[C@H](CCCNC(=N)N)NC(=O)CNC(=O)[C@H](CO)NC(=O)[C@H](CC(C)C)NC(=O)[C@H](CCCCN)NC(=O)[C@@H](NC(=O)[C@@H](NC(C)=O)C(C)C)[C@@H](C)CC)C(C)C)C(=O)NC[C@H](C)C(=O)N[C@H](C(=O)N[C@@H](CCC(=O)O)C(=O)NCC(=O)N[C@@H](CCSC)C(=O)N[C@@H](CO)C(=O)N[C@@H](CCCCN)C(=O)N[C@@H](Cc1c[nH]c2ccccc12)C(=O)N[C@@H](CO)C(=O)N[C@@H](CCCCN)C(=O)N[C@@H](CCCNC(=N)N)C(=O)N[C@@H](CCCCN)C(=O)N[C@@H](CCCCN)C(N)=O)[C@@H](C)CC` (HELM PEPTIDE1{[ac].V.I.K.L.S.G.R.E.L.V.R.A.Q.I.[C[C@@H](CN[*:1])C(=O)[*:2]].I.E.G.M.S.K.W.S.K.R.K.K.[am]}$$$$V2.0) are 98% and 46 nM.
As to `CC[C@H](C)[C@H](NC(=O)[C@H](CCC(N)=O)NC(=O)[C@H](C)NC(=O)[C@H](CCCNC(=N)N)NC(=O)[C@@H](NC(=O)[C@H](CC(C)C)NC(=O)[C@H](CCC(=O)O)NC(=O)[C@H](CCCNC(=N)N)NC(=O)CNC(=O)[C@H](CO)NC(=O)[C@H](CC(C)C)NC(=O)[C@H](CCCCN)NC(=O)[C@@H](NC(=O)[C@@H](NC(=O)[C@H](CCC(=O)O)NC(=O)[C@H](CCC(=O)O)NC(C)=O)C(C)C)[C@@H](C)CC)C(C)C)C(=O)N[C@@H](C)C(=O)NC[C@H](C)C(=O)N[C@@H](CO)C(=O)NCC(=O)N[C@@H](CCSC)C(=O)N[C@@H](CO)C(=O)N[C@H](C(=O)N[C@@H](Cc1c[nH]c2ccccc12)C(=O)N[C@@H](CO)C(=O)N[C@@H](CCCCN)C(=O)N[C@@H](CCCNC(=N)N)C(=O)N[C@@H](CCCCN)C(=O)N[C@@H](CCCCN)C(=O)O)[C@@H](C)O` (HELM PEPTIDE1{[ac].E.E.V.I.K.L.S.G.R.E.L.V.R.A.Q.I.A.[C[C@@H](CN[*:1])C(=O)[*:2]].S.G.M.S.T.W.S.K.R.K.K}$$$$V2.0), in assay [1], the Emax was determined as 95%. On Relaxin receptor 1, the concentration giving a half-maximal response (EC50) was 32 nM.
Take Ac-VIKLSGRELVRAQIAISGMSTWSKRSL-NH2: in assay [1], the Emax stood at 70%.
Take `CC[C@H](C)[C@H](NC(=O)[C@H](CCC(N)=O)NC(=O)[C@H](C)NC(=O)[C@H](CCCNC(=N)N)NC(=O)[C@@H](NC(=O)[C@@H](NC(=O)[C@H](CCC(=O)O)NC(=O)[C@H](CCCNC(=N)N)NC(=O)CNC(=O)[C@H](CCC(=O)O)NC(=O)[C@H](CC(C)C)NC(=O)[C@H](CCCCN)NC(=O)[C@@H](NC(=O)[C@@H](NC(C)=O)C(C)C)[C@@H](C)CC)[C@@H](C)CC)C(C)C)C(=O)NC[C@H](C)C(=O)N[C@H](C(=O)N[C@@H](CO)C(=O)NCC(=O)N[C@@H](CCSC)C(=O)N[C@@H](CO)C(=O)N[C@H](C(=O)N[C@@H](Cc1c[nH]c2ccccc12)C(=O)N[C@@H](CO)C(=O)N[C@@H](CCCCN)C(=O)N[C@@H](CCCNC(=N)N)C(=O)N[C@@H](CCCCN)C(=O)N[C@@H](CCCCN)C(N)=O)[C@@H](C)O)[C@@H](C)CC` (HELM PEPTIDE1{[ac].V.I.K.L.E.G.R.E.I.V.R.A.Q.I.[C[C@@H](CN[*:1])C(=O)[*:2]].I.S.G.M.S.T.W.S.K.R.K.K.[am]}$$$$V2.0): the Emax in assay [1] was found to be 102%. For the same compound, the 50% effective concentration (EC50) at Relaxin receptor 1 came out at 146 nM.
In the same order, the values of `CCCC[C@H](OC(=O)CNC(=O)[C@H](CCC(=O)O)NC(=O)[C@@H](C)CNC(=O)[C@@H](NC(=O)[C@H](CCC(N)=O)NC(=O)[C@H](C)NC(=O)[C@H](CCCNC(=N)N)NC(=O)[C@@H](NC(=O)[C@H](CCCCN)NC(=O)[C@H](CCC(=O)O)NC(=O)[C@H](CCCNC(=N)N)NC(=O)CNC(=O)[C@H](CCC(=O)O)NC(=O)[C@H](CC(C)C)NC(C)=O)C(C)C)[C@@H](C)CC)C(=O)N[C@@H](CO)C(=O)N[C@H](C(=O)N[C@@H](Cc1c[nH]c2ccccc12)C(=O)N[C@@H](CO)C(=O)NC[C@H](C)C(=O)N[C@@H](CCCNC(=N)N)C(=O)N[C@@H](CCCCN)C(=O)N[C@@H](CCCCN)C(=O)N[C@@H](CCCCCNC(C)=O)C(N)=O)[C@@H](C)O` (Ac-LEGREKVRAQI[β2hAla(2S)]EG[X4]STWS[β2hAla(2S)]RKK[hLys](Ac)-NH2) are 96% and 32 nM.
In the same order, the values of `CC[C@H](C)[C@H](NC(=O)[C@H](CCC(N)=O)NC(=O)[C@H](C)NC(=O)[C@H](CCCNC(=N)N)NC(=O)[C@@H](NC(=O)[C@H](CCCCN)NC(=O)[C@H](CCC(=O)O)NC(=O)[C@H](CCCNC(=N)N)NC(=O)CNC(=O)[C@H](CCC(=O)O)NC(=O)[C@H](CC(C)C)NC(=O)[C@H](CCCCN)NC(=O)[C@@H](NC(=O)[C@@H](NC(=O)[C@H](CCC(=O)O)NC(=O)[C@H](CCC(=O)O)NC(C)=O)C(C)C)[C@@H](C)CC)C(C)C)C(=O)NC[C@H](C)C(=O)N[C@H](C(=O)N[C@@H](CO)C(=O)NCC(=O)N[C@@H](CCSC)C(=O)N[C@@H](CO)C(=O)N[C@H](C(=O)N[C@@H](Cc1c[nH]c2ccccc12)C(=O)N[C@@H](CO)C(=O)N[C@@H](CCCCN)C(=O)N[C@@H](CCCNC(=N)N)C(=O)N[C@@H](CCCCN)C(=O)N[C@@H](CCCCN)C(N)=O)[C@@H](C)O)[C@@H](C)CC` (HELM PEPTIDE1{[ac].E.E.V.I.K.L.E.G.R.E.K.V.R.A.Q.I.[C[C@@H](CN[*:1])C(=O)[*:2]].I.S.G.M.S.T.W.S.K.R.K.K.[am]}$$$$V2.0) are 98% and 124 nM.
The corresponding values for Ac-EEVIKLSGRELVRAQIAISGMSTWSKRKK-NH2 are 92% and 897 nM.
For `CC[C@H](C)[C@H](NC(=O)[C@H](CCC(N)=O)NC(=O)[C@H](C)NC(=O)[C@H](CCCNC(=N)N)NC(=O)[C@@H](NC(=O)[C@H](CCCCN)NC(=O)[C@H](CCC(=O)O)NC(=O)[C@H](CCCNC(=N)N)NC(=O)CNC(=O)[C@H](CCC(=O)O)NC(=O)[C@H](CC(C)C)NC(C)=O)C(C)C)C(=O)NC[C@H](C)C(=O)NC[C@H](C)C(=O)N[C@@H](CCC(=O)O)C(=O)NCC(=O)N[C@@H](CCSC)C(=O)N[C@@H](CO)C(=O)N[C@H](C(=O)N[C@@H](Cc1c[nH]c2ccccc12)C(=O)N[C@@H](CO)C(=O)N[C@@H](CCCCN)C(=O)N[C@@H](CCCNC(=N)N)C(=O)N[C@@H](CCCCN)C(=O)N[C@@H](CCCCN)C(N)=O)[C@@H](C)O` (HELM PEPTIDE1{[ac].L.E.G.R.E.K.V.R.A.Q.I.[C[C@@H](CN[*:1])C(=O)[*:2]].[C[C@@H](CN[*:1])C(=O)[*:2]].E.G.M.S.T.W.S.K.R.K.K.[am]}$$$$V2.0), in assay [1], the Emax was 99%. The EC50 on Relaxin receptor 1 came to 23 nM.
